# Several values for one entry are separate records, joined by “and”; a condition that tells them apart may be missing. Equal values may be shown once. Read-outs that look alike come from different tables or passages of the source.
# Tests used:
# Assay type in all cases: cell-based
# SK-MEL-5 = assay: NCI 60 antitumor screening (single dose / five doses); settings: Homo sapiens
# COLO 205 = assay: as above; settings: Homo sapiens
# IGROV1 = assay: as above; settings: Homo sapiens
# A498 = assay: as above; settings: Homo sapiens
# NCI-H23 = assay: NCI 60 antitumor screening (single dose); settings: Homo sapiens; NCI-H23 (non-small cell lung cancer), single dose 10 μM; read-out: Growth inhibition percentage (GI %)
# Outline: (§1)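 NCI-60 protocol: single 10 μM dose against each cell line, run in triplicate. Percent growth (G%) of treated cells measured and growth inhibition reported as GI% = 100 − G%; panel mean also given.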
# OVCAR-4 = assay: NCI 60 antitumor screening (single dose); settings: Homo sapiens; OVCAR-4 (ovarian cancer), single dose 10 μM; read-out: Growth inhibition percentage (GI %)
# Outline: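 Values are GI% (100 minus percent growth, G%) from the NCI 60 cell line screen at one 10 μM concentration. Tests were done in triplicate under NCI protocol, with a mean across the whole panel reported as well.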
# SK-OV-3 = assay: NCI 60 antitumor screening (single dose); settings: Homo sapiens; SK-OV-3 (ovarian cancer), single dose 10 μM; read-out: Growth inhibition percentage (GI %)
# Outline: as §1
# EKVX = assay: NCI 60 antitumor screening (single dose / five doses); settings: Homo sapiens; for inhibition at 10 µM: read-out: Growth inhibition percentage (GI %)
# NCI/ADR-RES = assay: as above; settings: Homo sapiens; for inhibition at 10 µM: read-out: Growth inhibition percentage (GI %)
# MOLT-4 = assay: as above; settings: Homo sapiens
# MDA-MB-231/ATCC = assay: as above; settings: Homo sapiens
# MDA-MB-468 = assay: as above; settings: Homo sapiens
# BT-549 = assay: as above; settings: Homo sapiens
# MDA-MB-435 = assay: as above; settings: Homo sapiens
# SR = assay: as above; settings: Homo sapiens, read-out: Growth inhibition percentage (GI %)
# HCT-15 = assay: as above; settings: Homo sapiens
# SF-295 = assay: as above; settings: Homo sapiens
# SNB-75 = assay: as above; settings: Homo sapiens
# SN 12C = assay: as above; settings: Homo sapiens, SN12C; for inhibition at 10 µM: read-out: Growth inhibition percentage (GI %)
# SK-MEL-2 = assay: as above; settings: Homo sapiens
# DU-145 = assay: as above; settings: Homo sapiens
# [1] = test system: 60 human subpanel cancer cell lines; assay: NCI 60 antitumor screening, mean over the panel (single dose); settings: mean over 60 cancer cell lines, single dose 10 μM
# Outline: as §1
# HL-60(TB) = assay: NCI 60 antitumor screening (single dose / five doses); settings: Homo sapiens
# RXF 393 = assay: as above; settings: Homo sapiens
# UACC-62 = assay: as above; settings: Homo sapiens
# SK-MEL-28 = assay: as above; settings: Homo sapiens
# HCT-116 = assay: as above; settings: Homo sapiens
# LOX IMVI = assay: as above; settings: Homo sapiens; for inhibition at 10 µM: read-out: Growth inhibition percentage (GI %)
smiles,measurement,setting,value
"Fc1cccc(Cl)c1/C=N/Nc1nc(N/N=C/c2c(F)cccc2Cl)nc(N2CCCCC2)n1 [compound 7l, 2,4-Bis[(E)-2-[(2-Chloro-6-fluorophenyl)methylidene]hydrazin-1-yl]-6-(piperidin-1-yl)-1,3,5-triazine]",inhibition at 10 µM,"SK-MEL-5; SK-MEL-5 (melanoma), single dose 10 μM, read-out: Growth inhibition percentage (GI %)",41%
same,GI50,"SK-MEL-5; SK-MEL-5, five doses (0.01–100 μM), read-out: GI50",1.88 µM
same,inhibition at 10 µM,"COLO 205; COLO 205 (colon cancer), single dose 10 μM, read-out: Growth inhibition percentage (GI %)",117%
same,GI50,"COLO 205; COLO 205, five doses (0.01–100 μM), read-out: GI50",1.78 µM
same,inhibition at 10 µM,"IGROV1; IGROV-1, IGROV1 (ovarian cancer), single dose 10 μM, read-out: Growth inhibition percentage (GI %)",82.3%
same,GI50,"IGROV1; IGROV-1, IGROV1, five doses (0.01–100 μM), read-out: GI50",3.16 µM
same,inhibition at 10 µM,"A498; A498 (renal cancer), single dose 10 μM, read-out: Growth inhibition percentage (GI %)",47.2%
same,GI50,"A498; A498, five doses (0.01–100 μM), read-out: GI50",2.4 µM
same,inhibition at 10 µM,NCI-H23,55.2%
same,inhibition at 10 µM,OVCAR-4,79%
same,inhibition at 10 µM,SK-OV-3,60.9%
same,inhibition at 10 µM,"EKVX; EKVX (non-small cell lung cancer), single dose 10 μM",86.2%
same,GI50,"EKVX; EKVX, five doses (0.01–100 μM), read-out: GI50",1.54 µM
same,inhibition at 10 µM,"NCI/ADR-RES; NCI/ADR-RES (ovarian cancer), single dose 10 μM",84.8%
same,GI50,"NCI/ADR-RES; NCI/ADR-RES, five doses (0.01–100 μM), read-out: GI50",2.76 µM
same,inhibition at 10 µM,"MOLT-4; MOLT-4 (leukaemia), single dose 10 μM, read-out: Growth inhibition percentage (GI %)",86.3%
same,GI50,"MDA-MB-231/ATCC; MDA-MB-231/ ATCC, five doses (0.01–100 μM), read-out: GI50",7.65 µM
same,inhibition at 10 µM,"MDA-MB-231/ATCC; MDA-MB-231/ATCC (breast cancer), single dose 10 μM, read-out: Growth inhibition percentage (GI %)",57.9%
same,inhibition at 10 µM,"MDA-MB-468; MDA-MB-468 (breast cancer), single dose 10 μM, read-out: Growth inhibition percentage (GI %)",114%
same,GI50,"MDA-MB-468; MDA-MB-468, five doses (0.01–100 μM), read-out: GI50",1.86 µM
same,inhibition at 10 µM,"BT-549; BT-549 (breast cancer), single dose 10 μM, read-out: Growth inhibition percentage (GI %)",31.6%
same,GI50,"BT-549; BT-549, five doses (0.01–100 μM), read-out: GI50",4.45 µM
same,inhibition at 10 µM,"MDA-MB-435; MDA-MB-435 (melanoma), single dose 10 μM, read-out: Growth inhibition percentage (GI %)",96.2%
same,GI50,"MDA-MB-435; MDA-MB-435, five doses (0.01–100 μM), read-out: GI50",2.86 µM
same,inhibition at 10 µM,"SR; SR (leukaemia), single dose 10 μM",83.9%
same,inhibition at 10 µM,"HCT-15; HCT-15 (colon cancer), single dose 10 μM, read-out: Growth inhibition percentage (GI %)",96.1%
same,GI50,"HCT-15; HCT-15, five doses (0.01–100 μM), read-out: GI50",2.82 µM
same,inhibition at 10 µM,"SF-295; SF-295 (CNS cancer), single dose 10 μM, read-out: Growth inhibition percentage (GI %)",97.4%
same,GI50,"SF-295; SF-295, five doses (0.01–100 μM), read-out: GI50",1.01 µM
same,inhibition at 10 µM,"SNB-75; SNB-75 (CNS cancer), single dose 10 μM, read-out: Growth inhibition percentage (GI %)",62.5%
same,GI50,"SNB-75; SNB-75, five doses (0.01–100 μM), read-out: GI50",2.36 µM
same,inhibition at 10 µM,"SN 12C; SN 12C (renal cancer), single dose 10 μM",76.8%
same,GI50,"SN 12C; SN 12C, five doses (0.01–100 μM), read-out: GI50",2.85 µM
same,inhibition at 10 µM,"SK-MEL-2; SK-MEL-2 (melanoma), single dose 10 μM, read-out: Growth inhibition percentage (GI %)",126%
same,GI50,"SK-MEL-2; SK-MEL-2, five doses (0.01–100 μM)",1.69 µM
same,inhibition at 10 µM,"DU-145; DU-145 (prostate cancer), single dose 10 μM, read-out: Growth inhibition percentage (GI %)",39%
same,GI50,"DU-145; DU-145, five doses (0.01–100 μM), read-out: GI50",11.7 µM
same,Mean GI %,[1],81% and 81.15%
same,inhibition at 10 µM,"HL-60(TB); HL-60(TB) (leukaemia), single dose 10 μM, read-out: Growth inhibition percentage (GI %)",98.7%
same,GI50,"HL-60(TB); HL-60(TB), five doses (0.01–100 μM), read-out: GI50",2 µM
same,inhibition at 10 µM,"RXF 393; RXF 393 (renal cancer), single dose 10 μM, read-out: Growth inhibition percentage (GI %)",96.6%
same,GI50,"RXF 393; RXF 393, five doses (0.01–100 μM), read-out: GI50",2.65 µM
same,inhibition at 10 µM,"UACC-62; UACC-62 (melanoma), single dose 10 μM, read-out: Growth inhibition percentage (GI %)",81.7%
same,GI50,"UACC-62; UACC-62, five doses (0.01–100 μM), read-out: GI50",2.35 µM
same,inhibition at 10 µM,"SK-MEL-28; SK-MEL-28 (melanoma), single dose 10 μM, read-out: Growth inhibition percentage (GI %)",55.1%
same,GI50,"SK-MEL-28; SK-MEL-28, five doses (0.01–100 μM), read-out: GI50",3.41 µM
same,inhibition at 10 µM,"HCT-116; HCT-116 (colon cancer), single dose 10 μM, read-out: Growth inhibition percentage (GI %)",80.5%
same,GI50,"HCT-116; HCT-116, five doses (0.01–100 μM), read-out: GI50",2.83 µM
same,inhibition at 10 µM,"LOX IMVI; LOX IMVI (melanoma), single dose 10 μM",80.4%
same,GI50,"LOX IMVI; LOX IMVI, five doses (0.01–100 μM), read-out: GI50",3.77 µM
"C/C(=N\Nc1nc(N/N=C(\C)c2ccc([N+](=O)[O-])cc2)nc(N2CCOCC2)n1)c1ccc([N+](=O)[O-])cc1 [compound 8a, 2-(Morpholin-4-yl)-4,6-bis[(E)-2-[1–(4-nitrophenyl)ethylidene]hydrazin-1-yl]-1,3,5-triazine]",inhibition at 10 µM,"SK-MEL-5; SK-MEL-5, read-out: Growth inhibition percentage (GI %)",32.9%
same,inhibition at 10 µM,"COLO 205; COLO 205, read-out: Growth inhibition percentage (GI %)",5.21%
same,inhibition at 10 µM,"IGROV1; IGROV-1, read-out: Growth inhibition percentage (GI %)",6.22%
same,inhibition at 10 µM,"A498; A498, read-out: Growth inhibition percentage (GI %)",33.9%
same,inhibition at 10 µM,NCI-H23,42.1%
same,inhibition at 10 µM,OVCAR-4,22.4%
same,inhibition at 10 µM,SK-OV-3,-13%
same,inhibition at 10 µM,EKVX; EKVX,31.9%
same,inhibition at 10 µM,NCI/ADR-RES; NCI/ADR-RES,31.3%
same,inhibition at 10 µM,"MOLT-4; MOLT-4, read-out: Growth inhibition percentage (GI %)",21.1%
same,inhibition at 10 µM,"MDA-MB-231/ATCC; MDA-MB-231, read-out: Growth inhibition percentage (GI %)",56.5%
same,inhibition at 10 µM,"MDA-MB-468; MDA-MB-468, read-out: Growth inhibition percentage (GI %)",20.4%
same,inhibition at 10 µM,"BT-549; BT-549, read-out: Growth inhibition percentage (GI %)",32.7%
same,inhibition at 10 µM,"MDA-MB-435; MDA-MB-435, read-out: Growth inhibition percentage (GI %)",15%
same,inhibition at 10 µM,SR; SR,-13.1%
same,inhibition at 10 µM,"HCT-15; HCT-15, read-out: Growth inhibition percentage (GI %)",33.9%
same,inhibition at 10 µM,"SF-295; SF-295, read-out: Growth inhibition percentage (GI %)",33.5%
same,inhibition at 10 µM,"SNB-75; SNB-75, read-out: Growth inhibition percentage (GI %)",19.4%
same,inhibition at 10 µM,SN 12C,-27.4%
same,inhibition at 10 µM,"SK-MEL-2; SK-MEL-2, read-out: Growth inhibition percentage (GI %)",3.61%
same,inhibition at 10 µM,"DU-145; DU-145, read-out: Growth inhibition percentage (GI %)",19%
same,Mean GI %,[1],23.27%
same,inhibition at 10 µM,"HL-60(TB); HL-60, read-out: Growth inhibition percentage (GI %)",7.4%
same,inhibition at 10 µM,"RXF 393; RXF 393, read-out: Growth inhibition percentage (GI %)",26.3%
same,inhibition at 10 µM,"UACC-62; UACC-62, read-out: Growth inhibition percentage (GI %)",14.7%
same,inhibition at 10 µM,"SK-MEL-28; SK-MEL-28, read-out: Growth inhibition percentage (GI %)",16.2%
same,inhibition at 10 µM,"HCT-116; HCT-116, read-out: Growth inhibition percentage (GI %)",29.4%
same,inhibition at 10 µM,LOX IMVI; LOX IMVI,61.1%

# — article PMC9848300, “Discovery of novel enasidenib analogues targeting inhibition of mutant isocitrate dehydrogenase 2 as antileukaemic agents” (Journal of Enzyme Inhibition and Medicinal Chemistry, 2023)
